Results reported in patent publication US9493466B2, “Treatment of cancer with TOR kinase inhibitors” (Signal Pharmaceuticals, LLC, priority 2011, dated 2016).

Columns and labels:
MM = assay: Phase 1/2 study Part B: tumor response, MM; format: in vivo, human; settings: 11 evaluable patients, up to 9 cycles
Text: In Part B, subjects may start Compound 1 at the MTD and/or a lower dose level based on safety, PK and PD data from Part A. Approximately 150 subjects will be treated and evaluated for safety and preliminary antitumor activity after every two cycles of therapy. Tumor types include non-small cell lung cancer (NSCLC), glioblastoma multiforme (GBM), hepatocellular carcinoma (HCC), gastrointestinal neuroendocrine tumor of non-pancreatic origin (NET), diffuse large B-cell lymphoma (DLBCL), multiple myeloma (MM), and hormone receptor positive breast cancer (HRPBC). Up to 20 subjects will be enrolled in each tumor type.
Subjects will be evaluated for efficacy every 2 cycles through cycle 6 and every 3 cycles thereafter. The primary efficacy variable is response. Tumor assessments, including imaging (CT, MRI and/or PET) of the chest and abdomen and other sites as appropriate, will be performed during Screening. Subjects with brain lesions will also have brain scans at Screening and during follow-up tumor assessments. […] Subjects will be evaluated for tumor response on completion of Cycle 2, 4, 6, and so on. […]
For Part B, efficacy variables to be analyzed include tumor response at the end of treatment, the proportion of subject alive and progression-free, and duration of response. […]

[1] = tested on: Hep3B2.1-7 human liver tumor cells; assay: Hepatocellular carcinoma (Hep3B2.1-7) orthotopic study; format: in vivo, mice; settings: 10 mg/kg daily p.o., three weeks; FIGS. 17-18
Method: Hepatocellular Carcinoma (Hep3B2.1-7) Orthotopic Study. Hep3B2.1-7 human liver tumor cells were cultured in RPMI 1640 cell culture medium, supplemented with 10% FBS, 1% Glutamax and 1% penicillin-streptomycin. The cells were harvested by trypsinization, washed twice in HBSS and counted. The cells were then resuspended in HBSS:Matrigel™ (1:1, v/v) to a final concentration of 2×10^8 cells/mL. Prior to inoculation (while the animal was anesthetized via injectable Ketamil (10 mg/mL)/Xylazil (0.9 mg/mL) anesthetic), the skin on the incision site was swabbed with alcohol and an incision was made into the skin directly over the liver to expose the main lobe of the liver. The needle was introduced into the main lobe of the liver, where 2×10^6 Hep3B2.1-7 cells (in 10 μL with 50% Matrigel™) were discharged. Fourteen days post-inoculation, a satellite group of mice were culled to assess the presence of tumors in the liver.
Compound 1 powder was suspended in 0.5% CMC/0.25% Tween80 to achieve a stock concentration of 2 mg/mL. […]
The Vehicle Control and Test Articles were administered in a dosing volume of 5 mL/kg. Each animal's body weight was measured immediately prior to dosing. The volume of dosing solution administered to each animal was calculated and adjusted based on individual body weight. […]

[2] = tested on: PC-3, A549, HCT 116, U87-MG, MDA-MB-231, NCI-H23, NCI-H460, T47D; assay: Growth inhibition assay for cell lines with varying sensitivity to rapamycin; format: cell-based; settings: 3 days; including cell types partially sensitive or insensitive to Rapamycin; FIG. 8
Method: Growth Inhibition Assay for Cell Lines with Varying Sensitivity to Rapamycin (Compound 1). Cells were plated in 96-well plates at densities determined for each cell line and the following day were treated with a range of Compound 1 concentrations. The cells were incubated for 3 days at 37° C. and then […] of WST-1 (Roche) for PC-3, A549, HCT 116, U87-MG, MDA-MB-231, and NCI-H23) or […] CellTiter-Glo reagent (Promega) for NCI-H460, T47D) was added to each well and the assay was completed according to manufacturer protocols. The percentage inhibition at each concentration of compound was normalized to the DMSO control values. The percentage inhibition was determined for each replicate and then the 3 values were averaged for each set of triplicate wells. All data were analyzed using XLfit from IDBS. The formula used for determining IC50 in Xlfit was model number 205, which utilizes a 4-parameter logistic model or sigmoidal dose-response model to calculate IC50 values. IC50 values are reported as an average.
Rapamycin effects on proliferation tend to plateau in most cell lines.

SMILES: CO[C@H]1CC[C@H](N2C(=O)CNc3ncc(-c4ccc(C(C)(C)O)nc4)nc32)CC1 [Compound 1, 7-(6-(2-hydroxypropan-2-yl)pyridin-3-yl)-1-((1r,4r)-4-methoxycyclohexyl)-3,4-dihydropyrazino-[2,3-b]pyrazin-2(1H)-one]
- tumor responses (IURCMM criteria) (MM): No tumor responses
- tumor growth inhibition [1]: significant tumor growth inhibition
- cell growth inhibition [2]: potent cell growth inhibition
